Reference: ChEMBL document CHEMBL1135611, “Thrombin inhibition by novel benzamidine derivatives: a free-energy perturbation study” (J Med Chem, 2002)

Biological target: Prothrombin (Homo sapiens, UniProt P00734)
Test: Binding Affinity to Thrombin

| Compound | Ki [nM] |
| --- | --- |
| NC(N)c1ccc(CC(=O)C(=O)O)cc1 | 620 |
| NC(N)c1ccccc1 | 300 |
